Data taken from the kinase profiling compilation of Christmann-Franck et al. (2016).

Tests used:
Test in all cases: KINOMEscan competition binding
Settings in all cases: compound 10.0 µM
[1] = molecular target: FGFR1 (human) (UniProt P11362)
[2] = molecular target: DMPK (human) (UniProt Q09013)
[3] = molecular target: DSTYK (human) (UniProt Q6XUX3)
[4] = molecular target: MAP2K6 (human) (UniProt P52564)
[5] = molecular target: RAF1 (human) (UniProt P04049)
[6] = molecular target: PKMYT1 (human) (UniProt Q99640)
[7] = molecular target: BMPR1B (human) (UniProt O00238)
[8] = molecular target: STK11 (human) (UniProt Q15831)
[9] = molecular target: PIK3C2G (human) (UniProt O75747)
[10] = molecular target: TNIK (human) (UniProt Q9UKE5)
[11] = molecular target: RIPK4 (human) (UniProt P57078)
[12] = molecular target: MAP4K5 (human) (UniProt Q9Y4K4)
[13] = molecular target: SRPK3 (human) (UniProt Q9UPE1)
[14] = molecular target: GSK3A (human) (UniProt P49840)
[15] = molecular target: ACVR2A (human) (UniProt P27037)
[16] = molecular target: AKT1 (human) (UniProt P31749)
[17] = molecular target: AXL (human) (UniProt P30530)
[18] = molecular target: EPHB1 (human) (UniProt P54762)
[19] = molecular target: DYRK1B (human) (UniProt Q9Y463)
[20] = molecular target: ERBB4 (human) (UniProt Q15303)
[21] = molecular target: MELK (human) (UniProt Q14680)
[22] = molecular target: CDK14 (human) (UniProt O94921)
[23] = molecular target: AKT3 (human) (UniProt Q9Y243)
[24] = molecular target: MYLK3 (human) (UniProt Q32MK0)
[25] = molecular target: PAK3 (human) (UniProt O75914)
[26] = molecular target: ULK2 (human) (UniProt Q8IYT8)
[27] = molecular target: CAMK2A (human) (UniProt Q9UQM7)
[28] = molecular target: CLK3 (human) (UniProt P49761)
[29] = molecular target: NEK4 (human) (UniProt P51957)
[30] = molecular target: SRC (human) (UniProt P12931)
[31] = molecular target: PAK1 (human) (UniProt Q13153)
[32] = molecular target: MAPK1 (human) (UniProt P28482)
[33] = molecular target: EPHB4 (human) (UniProt P54760)
[34] = molecular target: STK25 (human) (UniProt O00506)
[35] = molecular target: NIM1 (human) (UniProt Q8IY84)
[36] = molecular target: ABL2 (human) (UniProt P42684)
[37] = molecular target: WEE2 (human) (UniProt P0C1S8)
[38] = molecular target: CDC2L2 (human) (UniProt Q9UQ88)
[39] = molecular target: CSNK1E (human) (UniProt P49674)
[40] = molecular target: STK24 (human) (UniProt Q9Y6E0)
[41] = system: RET (human), P07949 [V804L]

Sequence of WEE2 (human) (P0C1S8 whole entry, looked up): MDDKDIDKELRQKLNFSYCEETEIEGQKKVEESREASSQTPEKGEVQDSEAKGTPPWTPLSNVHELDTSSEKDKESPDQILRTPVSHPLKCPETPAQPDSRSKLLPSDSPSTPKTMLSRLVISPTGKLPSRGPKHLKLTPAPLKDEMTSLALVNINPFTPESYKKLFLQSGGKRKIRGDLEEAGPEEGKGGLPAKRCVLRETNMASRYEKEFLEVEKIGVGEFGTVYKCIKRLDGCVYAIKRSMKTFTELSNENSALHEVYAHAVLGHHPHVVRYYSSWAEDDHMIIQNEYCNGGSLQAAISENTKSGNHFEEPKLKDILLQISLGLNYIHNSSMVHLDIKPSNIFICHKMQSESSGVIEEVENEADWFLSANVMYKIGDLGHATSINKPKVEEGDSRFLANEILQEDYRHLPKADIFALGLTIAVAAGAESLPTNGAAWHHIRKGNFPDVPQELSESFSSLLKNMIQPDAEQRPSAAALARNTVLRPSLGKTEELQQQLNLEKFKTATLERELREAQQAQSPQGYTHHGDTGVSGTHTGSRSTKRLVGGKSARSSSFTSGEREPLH
Sequence of MAPK1 (human) (P28482 whole entry, looked up): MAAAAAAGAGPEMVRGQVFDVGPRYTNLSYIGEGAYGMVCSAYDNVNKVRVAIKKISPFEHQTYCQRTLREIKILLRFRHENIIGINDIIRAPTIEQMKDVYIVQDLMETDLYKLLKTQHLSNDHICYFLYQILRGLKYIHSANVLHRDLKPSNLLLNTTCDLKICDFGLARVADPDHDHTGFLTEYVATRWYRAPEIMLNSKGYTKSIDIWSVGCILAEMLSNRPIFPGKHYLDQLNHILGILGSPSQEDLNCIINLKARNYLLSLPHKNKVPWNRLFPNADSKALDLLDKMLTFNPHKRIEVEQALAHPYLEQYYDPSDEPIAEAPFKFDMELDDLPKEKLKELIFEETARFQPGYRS
Sequence of EPHB4 (human) (P54760 whole entry, looked up): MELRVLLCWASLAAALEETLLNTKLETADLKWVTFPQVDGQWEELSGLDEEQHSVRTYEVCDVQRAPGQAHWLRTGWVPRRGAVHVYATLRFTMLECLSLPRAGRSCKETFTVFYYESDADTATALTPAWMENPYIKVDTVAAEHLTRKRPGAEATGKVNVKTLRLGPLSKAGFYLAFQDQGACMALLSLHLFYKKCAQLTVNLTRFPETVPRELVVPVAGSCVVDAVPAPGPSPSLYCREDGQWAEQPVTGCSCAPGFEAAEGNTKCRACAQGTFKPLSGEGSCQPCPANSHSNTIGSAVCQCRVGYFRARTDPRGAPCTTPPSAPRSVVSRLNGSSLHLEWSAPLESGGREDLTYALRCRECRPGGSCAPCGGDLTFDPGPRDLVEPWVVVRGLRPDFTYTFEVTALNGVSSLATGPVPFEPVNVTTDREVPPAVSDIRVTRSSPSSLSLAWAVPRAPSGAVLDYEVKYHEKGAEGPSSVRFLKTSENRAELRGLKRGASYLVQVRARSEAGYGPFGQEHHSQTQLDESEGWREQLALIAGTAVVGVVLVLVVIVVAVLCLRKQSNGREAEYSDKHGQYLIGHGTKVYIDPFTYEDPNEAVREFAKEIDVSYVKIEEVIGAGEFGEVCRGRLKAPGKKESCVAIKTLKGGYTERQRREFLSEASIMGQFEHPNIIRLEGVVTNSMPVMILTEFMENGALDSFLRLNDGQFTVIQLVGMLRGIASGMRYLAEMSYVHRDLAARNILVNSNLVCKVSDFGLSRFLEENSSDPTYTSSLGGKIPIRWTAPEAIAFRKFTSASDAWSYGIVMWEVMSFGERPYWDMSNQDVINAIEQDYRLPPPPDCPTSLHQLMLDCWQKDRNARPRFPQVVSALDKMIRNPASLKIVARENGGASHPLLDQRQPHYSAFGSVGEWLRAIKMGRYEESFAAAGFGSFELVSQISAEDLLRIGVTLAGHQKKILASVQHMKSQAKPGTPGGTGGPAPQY
Sequence of TNIK (human) (Q9UKE5 whole entry, looked up): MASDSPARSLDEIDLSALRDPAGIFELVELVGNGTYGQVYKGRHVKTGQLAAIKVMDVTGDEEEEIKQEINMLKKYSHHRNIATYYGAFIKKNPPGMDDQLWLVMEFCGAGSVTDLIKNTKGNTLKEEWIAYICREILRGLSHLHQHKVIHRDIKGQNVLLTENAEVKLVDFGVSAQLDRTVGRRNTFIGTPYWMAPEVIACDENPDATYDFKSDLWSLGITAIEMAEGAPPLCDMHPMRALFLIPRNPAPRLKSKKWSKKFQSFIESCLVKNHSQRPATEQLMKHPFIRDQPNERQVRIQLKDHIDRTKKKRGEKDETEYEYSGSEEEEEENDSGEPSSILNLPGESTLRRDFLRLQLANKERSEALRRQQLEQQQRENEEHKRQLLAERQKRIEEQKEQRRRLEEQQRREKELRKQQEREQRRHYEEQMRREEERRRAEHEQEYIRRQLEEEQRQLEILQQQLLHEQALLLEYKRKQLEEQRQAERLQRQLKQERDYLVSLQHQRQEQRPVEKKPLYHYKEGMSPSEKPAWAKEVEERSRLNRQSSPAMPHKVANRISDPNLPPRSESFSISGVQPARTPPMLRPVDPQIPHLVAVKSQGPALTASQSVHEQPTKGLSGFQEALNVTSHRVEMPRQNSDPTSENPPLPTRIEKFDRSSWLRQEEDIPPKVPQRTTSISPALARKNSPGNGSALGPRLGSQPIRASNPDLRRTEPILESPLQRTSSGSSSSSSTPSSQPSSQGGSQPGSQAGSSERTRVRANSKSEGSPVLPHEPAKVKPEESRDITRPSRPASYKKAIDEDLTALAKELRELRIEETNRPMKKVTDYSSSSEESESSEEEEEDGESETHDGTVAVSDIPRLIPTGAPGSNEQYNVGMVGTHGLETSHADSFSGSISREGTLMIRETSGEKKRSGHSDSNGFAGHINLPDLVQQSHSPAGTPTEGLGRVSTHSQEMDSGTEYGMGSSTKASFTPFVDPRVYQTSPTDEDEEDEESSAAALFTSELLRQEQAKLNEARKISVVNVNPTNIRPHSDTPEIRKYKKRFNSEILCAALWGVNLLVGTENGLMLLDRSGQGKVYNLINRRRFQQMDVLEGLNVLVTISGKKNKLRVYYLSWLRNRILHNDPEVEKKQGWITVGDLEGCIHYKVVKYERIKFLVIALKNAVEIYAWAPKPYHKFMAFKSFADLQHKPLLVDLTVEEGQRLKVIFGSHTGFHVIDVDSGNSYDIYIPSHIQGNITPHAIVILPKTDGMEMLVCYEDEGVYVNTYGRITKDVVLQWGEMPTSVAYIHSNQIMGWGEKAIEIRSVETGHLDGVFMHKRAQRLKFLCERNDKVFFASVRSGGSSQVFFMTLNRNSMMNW
Sequence of PAK3 (human) (O75914 whole entry, looked up): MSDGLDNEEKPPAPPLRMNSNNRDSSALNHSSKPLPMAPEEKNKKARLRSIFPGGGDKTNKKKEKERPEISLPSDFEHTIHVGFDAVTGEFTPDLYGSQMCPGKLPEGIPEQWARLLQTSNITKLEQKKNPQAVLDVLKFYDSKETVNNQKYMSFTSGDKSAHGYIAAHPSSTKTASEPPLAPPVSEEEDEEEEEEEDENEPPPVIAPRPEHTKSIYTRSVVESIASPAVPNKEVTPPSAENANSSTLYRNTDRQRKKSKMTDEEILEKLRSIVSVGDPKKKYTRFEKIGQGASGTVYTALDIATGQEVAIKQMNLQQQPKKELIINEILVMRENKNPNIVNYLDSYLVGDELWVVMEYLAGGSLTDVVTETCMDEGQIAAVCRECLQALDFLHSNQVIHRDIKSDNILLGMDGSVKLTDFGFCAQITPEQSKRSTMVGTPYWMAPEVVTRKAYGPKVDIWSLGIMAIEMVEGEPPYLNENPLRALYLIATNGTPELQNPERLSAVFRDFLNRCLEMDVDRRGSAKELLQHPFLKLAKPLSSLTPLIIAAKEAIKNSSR
Sequence of MYLK3 (human) (Q32MK0 whole entry, looked up): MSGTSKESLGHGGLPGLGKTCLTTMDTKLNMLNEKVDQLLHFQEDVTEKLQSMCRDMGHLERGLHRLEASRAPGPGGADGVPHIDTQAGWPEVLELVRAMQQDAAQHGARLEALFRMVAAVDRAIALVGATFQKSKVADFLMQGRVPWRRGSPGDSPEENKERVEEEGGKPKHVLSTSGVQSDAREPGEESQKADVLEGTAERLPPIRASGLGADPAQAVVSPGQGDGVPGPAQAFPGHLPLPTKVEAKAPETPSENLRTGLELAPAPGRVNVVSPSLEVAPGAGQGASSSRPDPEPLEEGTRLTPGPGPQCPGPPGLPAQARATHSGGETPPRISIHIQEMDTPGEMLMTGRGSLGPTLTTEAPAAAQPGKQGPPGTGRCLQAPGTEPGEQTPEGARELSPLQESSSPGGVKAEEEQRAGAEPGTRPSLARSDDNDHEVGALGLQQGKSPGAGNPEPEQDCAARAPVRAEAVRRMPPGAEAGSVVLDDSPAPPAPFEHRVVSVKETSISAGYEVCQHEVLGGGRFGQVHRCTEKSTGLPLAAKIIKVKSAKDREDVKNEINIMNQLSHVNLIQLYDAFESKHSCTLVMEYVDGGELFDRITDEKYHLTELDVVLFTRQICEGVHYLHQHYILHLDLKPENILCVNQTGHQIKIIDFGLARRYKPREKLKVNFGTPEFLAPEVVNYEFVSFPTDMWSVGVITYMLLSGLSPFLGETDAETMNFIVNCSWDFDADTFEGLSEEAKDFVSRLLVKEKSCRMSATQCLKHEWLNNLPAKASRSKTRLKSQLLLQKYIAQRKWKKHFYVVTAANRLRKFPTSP
Sequence of MAP2K6 (human) (P52564 whole entry, looked up): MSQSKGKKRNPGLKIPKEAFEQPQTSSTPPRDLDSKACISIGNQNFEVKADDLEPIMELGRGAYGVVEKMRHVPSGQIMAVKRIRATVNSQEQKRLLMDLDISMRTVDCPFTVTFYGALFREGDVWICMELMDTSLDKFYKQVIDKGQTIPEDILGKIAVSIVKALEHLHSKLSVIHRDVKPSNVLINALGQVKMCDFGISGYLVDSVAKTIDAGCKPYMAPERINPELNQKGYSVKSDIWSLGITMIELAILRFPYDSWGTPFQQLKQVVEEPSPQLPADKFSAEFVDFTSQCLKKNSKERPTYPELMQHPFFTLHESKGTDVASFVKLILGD

In the case of `C=CC(=O)Nc1ccc(C(=O)c2sc(Nc3ccc(N4CCN(C)CC4)cc3OC)nc2N)cc1`, the kinase still bound, per cent of control [1] is reported as 38%, the kinase still bound, per cent of control [2] is reported as 12% and the kinase still bound, per cent of control [3] is reported as 4.7%. It also gave a kinase still bound, per cent of control [4] of 96%, a kinase still bound, per cent of control [5] of 97% and a kinase still bound, per cent of control [6] of 96%. It also gave a kinase still bound, per cent of control [7] of 86%, a kinase still bound, per cent of control [8] of 86% and a kinase still bound, per cent of control [9] of 100%. It also gave a kinase still bound, per cent of control [10] of 6%, a kinase still bound, per cent of control [11] of 89% and a kinase still bound, per cent of control [12] of 87%. The kinase still bound, per cent of control [13] was 54%, the kinase still bound, per cent of control [14] was 67% and the kinase still bound, per cent of control [15] was 100%. It also gave a kinase still bound, per cent of control [16] of 100%, a kinase still bound, per cent of control [17] of 100% and a kinase still bound, per cent of control [18] of 98%. For the same compound, the kinase still bound, per cent of control [19] was 2.6%, the kinase still bound, per cent of control [20] was 61% and the kinase still bound, per cent of control [21] was 87%. It also gave a kinase still bound, per cent of control [22] of 82%, a kinase still bound, per cent of control [23] of 73% and a kinase still bound, per cent of control [24] of 100%. For the same compound, the kinase still bound, per cent of control [25] was 100%, the kinase still bound, per cent of control [26] was 9.4% and the kinase still bound, per cent of control [27] was 1.2%. The kinase still bound, per cent of control [28] was 8.9%, the kinase still bound, per cent of control [29] was 97% and the kinase still bound, per cent of control [30] was 100%. It also gave a kinase still bound, per cent of control [31] of 73%, a kinase still bound, per cent of control [32] of 100% and a kinase still bound, per cent of control [33] of 100%. For the same compound, the kinase still bound, per cent of control [34] was 100%, the kinase still bound, per cent of control [35] was 91% and the kinase still bound, per cent of control [36] was 100%. For the same compound, the kinase still bound, per cent of control [37] was 100%, the kinase still bound, per cent of control [38] was 87% and the kinase still bound, per cent of control [39] was 66%. The kinase still bound, per cent of control [40] was 71% and the kinase still bound, per cent of control [41] was 100%.

In the case of `CCCS(=O)(=O)Nc1ccc(F)c(C(=O)c2c[nH]c3ncc(Cl)cc23)c1F`, the kinase still bound, per cent of control [1] is reported as 34%, the kinase still bound, per cent of control [2] is reported as 100% and the kinase still bound, per cent of control [3] is reported as 54%. The kinase still bound, per cent of control [4] was 47%, the kinase still bound, per cent of control [5] was 3.4% and the kinase still bound, per cent of control [6] was 100%. The kinase still bound, per cent of control [7] was 74%, the kinase still bound, per cent of control [8] was 79% and the kinase still bound, per cent of control [9] was 55%. The kinase still bound, per cent of control [10] was 24%, the kinase still bound, per cent of control [11] was 89% and the kinase still bound, per cent of control [12] was 22%. For the same compound, the kinase still bound, per cent of control [13] was 100%, the kinase still bound, per cent of control [14] was 100% and the kinase still bound, per cent of control [15] was 100%. For the same compound, the kinase still bound, per cent of control [16] was 100%, the kinase still bound, per cent of control [17] was 40% and the kinase still bound, per cent of control [18] was 100%. The kinase still bound, per cent of control [19] was 87%, the kinase still bound, per cent of control [20] was 73% and the kinase still bound, per cent of control [21] was 76%. For the same compound, the kinase still bound, per cent of control [22] was 100%, the kinase still bound, per cent of control [23] was 100% and the kinase still bound, per cent of control [24] was 41%. The kinase still bound, per cent of control [25] was 34%, the kinase still bound, per cent of control [26] was 60% and the kinase still bound, per cent of control [27] was 84%. It also gave a kinase still bound, per cent of control [28] of 80%, a kinase still bound, per cent of control [29] of 71% and a kinase still bound, per cent of control [30] of 9.2%. It also gave a kinase still bound, per cent of control [31] of 11%, a kinase still bound, per cent of control [32] of 100% and a kinase still bound, per cent of control [33] of 100%. The kinase still bound, per cent of control [34] was 53%, the kinase still bound, per cent of control [35] was 92% and the kinase still bound, per cent of control [36] was 36%. For the same compound, the kinase still bound, per cent of control [37] was 100%, the kinase still bound, per cent of control [38] was 95% and the kinase still bound, per cent of control [39] was 60%. It also gave a kinase still bound, per cent of control [40] of 77% and a kinase still bound, per cent of control [41] of 96%.
